Data published in US20180071242A1, “SUBSTITUTED ACYLANILIDES AND METHODS OF USE THEREOF” (University of Tennessee Research Foundation, priority 2006, published 2018).
Read-outs that look alike come from different tables or passages of the source.

What was measured:
[1] = system: orchidectomized (ORX) male Sprague-Dawley rats; assay: Anabolic and androgenic activity in castrated (ORX) male rats; type: in vivo, rat; conditions: for Seminal vesicles weight: castrated (ORX) rats, oral gavage; for Anabolic ratio (muscle/prostate weight): castrated rats
Method: (§1) Anabolic and androgenic efficacy of compound of formula (I) administered by daily oral gavage were tested. The S-isomer of compound (I) [S-(I)] was synthesized and tested as described herein.
(§2) The test article for this study was weighed and dissolved in 10% DMSO (Fischer) diluted with PEG 300 (Acros Organics, NJ) for preparation of the appropriate dosage concentrations. The animals were housed in groups of 2 to 3 animals per cage. Animals were randomly assigned to one of seven groups consisting of 4 to 5 animals per group. Control groups (intact and ORX) were administered vehicle daily. S-(I) was administered via oral gavage at doses of 0.01, 0.03, 0.1, 0.3, 0.75, and 1 mg/day to both intact and ORX groups. Where appropriate, animals were castrated on day one of the study. Treatment with S-(I) began nine days post ORX and was administered daily via oral gavage for fourteen days.
(§3) The animals were sacrificed under anesthesia (ketamine/xyalzine, 87:13 mg/kg) and body weights were recorded. In addition, ventral prostate, seminal vesicles, and levator ani muscle were removed, individually weighed, normalized to body weight, and expressed as a percentage of intact control. Student's T-test was used to compare individual dose groups to the intact control group. Significance was defined a priori as a P-value <0.05. Ventral prostate and seminal vesicle weights were evaluated as a measure of androgenic activity, whereas levator ani muscle weight was evaluated as a measure of anabolic activity. Blood was collected from the abdominal aorta, centrifuged, and sera were frozen at −80° C. prior to determination of serum hormone levels. Serum luteinizing hormone (LH) and follicle stimulating hormone (FSH) concentrations were determined.

[2] = system: intact male Sprague-Dawley rats; assay: Anabolic and androgenic activity in intact male rats; type: in vivo, rat
Method: as §1
as §2, with “Treatment with S-(I) began nine days post ORX and was administered daily via oral gavage for fourteen days.” left out
as §3, with “Student's T-test was used to compare individual dose groups to the intact control group. Significance was defined a priori as a P-value <0.05.” left out, “Blood was collected from the abdominal aorta, centrifuged, and sera were frozen at −80° C. prior to determination of serum hormone levels.” left out

[3] = Metabolic stability measured in human liver microsomes; type: in vitro ADME; conditions: for microsomal CLint at 0.6 μM: human, pH 7.4, human liver microsomes
Method: Metabolic stability assays were performed in order to assess the in vitro half-life of the S-isomer of compound of formula (I) [S-(I)] when incubated with human liver microsomes. Intrinsic clearance values were extrapolated. Permeability of the compound across human, intestinal epithelial monolayers (Caco-2 cells) was assessed as a measure of intestinal permeability as well as an indicator of efflux potential. Caco-2 cells are often used as an early screening surrogate for oral bioavailability. Microsomal half-life can be converted to in vitro clearance values as a means to predict hepatic intrinsic clearance. Intrinsic clearance is defined as the functional ability of the liver to metabolize a drug or other compound.
S-(I) in this study was incubated at a final concentration of 0.6 μM. Microsome reactions were performed under either Phase I or “Phase I and II” conditions, where indicated. Compound stocks (10 mM ACN) were initially diluted to a concentration of 60 μM (in 60% ACN/H2O) resulting in a “working stock” solution of 100×. Human liver microsomes were utilized at a final concentration of […]. Duplicate wells were used for each time point (0, 6, 10, 30, and 60 minutes). Reactions were carried out at 37° C. in a shaking water bath, and the final concentration of solvent was kept constant at 0.6%. The final volume for each reaction was 600 μl, comprised of […] of 100 mM KPO4 buffer, (pH 7.4); 12.6 μl of HLM (from a 20 mg/ml stock); 6 μl of 100× “working stock” drug compound, and 126 μl of NRS “master mix” solution. At each time point, 100 μl of reaction was removed and added to a sample well containing 100 μl of ice-cold, 100% ACN (plus internal standards), to stop the reaction. The NRS “master mix” is a solution of glucose 6-phosphate dehydrogenase, NADP^+, MgCl2, and glucose 6-phosphate, prepared per manufacturer's instructions (BD Biosciences, Waltham, Mass.). Each […] stock of NRS “master mix” solution contains 3.8 ml H2O, 1.0 ml solution “A” (Cat. #461220), and 0.2 ml solution “B” (Cat. #461200). Human liver microsomes (lot #0610279, Xenotech Corp.) represented a pool of 60 donors.
Samples were centrifuged at 3,000 rpm for 10 minutes at 4° C. to remove debris and precipitated protein. […] The concentration of parent drug remaining in each well (expressed as percent remaining versus Time ‘0’, at the beginning of the reaction) was measured by LC/MS, as detailed below.
All samples were analyzed on the MDS/Sciex API4000 Q Trap system with electrospray ionization (ESI) in the positive or negative SIM mode, depending on the compounds. […] The percentage of parent drug compound remaining after each time point was determined relative to the initial measured concentration at the beginning of the reaction (T0 min). […]

[4] = system: DMD (−/−) UTRN (−/−) mice; assay: Double knockout mouse model of Duchenne muscular dystrophy; conditions: 10 mg/kg/day, data cumulative across the SARM groups
[5] = biological target: T1, Recombinant androgen receptor ligand binding domain (AR LBD) (Homo sapiens, UniProt P10275); assay: In vitro competitive radioligand binding assay with [3H]mibolerone
T1 sequence (P10275 669-900 limits assumed): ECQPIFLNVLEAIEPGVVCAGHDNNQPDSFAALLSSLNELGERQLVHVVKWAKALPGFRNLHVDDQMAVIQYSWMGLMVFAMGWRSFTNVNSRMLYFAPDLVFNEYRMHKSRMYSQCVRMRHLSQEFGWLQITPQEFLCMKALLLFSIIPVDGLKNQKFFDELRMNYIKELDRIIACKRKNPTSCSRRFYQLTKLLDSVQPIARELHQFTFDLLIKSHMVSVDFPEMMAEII
Method: Following incubation, plates were harvested with GF/B filters on the Unifilter-96 Harvester (PerkinElmer) and washed three times with ice-cold buffer B (60 mM Tris, pH 7.2). The filter plates were dried at RT, then 36 μl Microscint-O® cocktail was added to each well and sealed with TopSeal-A®. The receptor bound radioligand was then determined with the TopCount® NXT Microplate Scintillation Counter (PerkinElmer).
The equilibrium binding constant (Ki) of each compound was then determined with the following equation:

C[C@](O)(COc1ccc(C#N)cc1)C(=O)Nc1ccc(C#N)c(Cl)c1 [S-(I), (S)—N-(3-chloro-4-cyanophenyl)-3-(4-cyanophenoxy)-2-hydroxy-2-methylpropanamide]
Seminal vesicles weight ([1]; 0.01 mg/day): 10%±3% | Seminal vesicles weight ([1]; 0.03 mg/day): 13%±4% | Seminal vesicles weight ([1]; 0.1 mg/day): 21%±6% | Seminal vesicles weight ([1]; 0.3 mg/day): 43%±8% | Seminal vesicles weight ([1]; 0.75 mg/day): 51%±9% | Seminal vesicles weight ([1]; 1 mg/day): 69%±14% | Anabolic ratio (muscle/prostate weight) ([1]; 0.01 mg/day): 3.02 | Anabolic ratio (muscle/prostate weight) ([1]; 0.03 mg/day): 2.13 | Anabolic ratio (muscle/prostate weight) ([1]; 0.1 mg/day): 2.27 | Anabolic ratio (muscle/prostate weight) ([1]; 0.3 mg/day): 1.90 | Anabolic ratio (muscle/prostate weight) ([1]; 0.75 mg/day): 1.83 | Anabolic ratio (muscle/prostate weight) ([1]; 1 mg/day): 1.51 | Seminal vesicles weight (in words) [2]: decreases | Half Life (minutes) Phase I only ([3]; Phase I only): Stable | microsomal CLint at 0.6 μM ([3]; Phase I + II, read-out: CLint (μl/min/mg) Phase I + II): 2 µL/min/mg | microsomal CLint at 0.6 μM ([3]; Phase I only, read-out: CLint (μl/min/mg) Phase I only): < 1 µL/min/mg | half-life at 0.6 μM ([3]; pH 7.4, Phase I + II): 5.81 h | Ability to be ambulatory (in words) [4]: enhanced the ability of these mice to be ambulatory | Deterioration of body weight (in words) [4]: delayed the deterioration | Deterioration of grip strength (in words) [4]: delayed the deterioration | Deterioration of lean mass (in words) [4]: delayed the deterioration | Ki [5]: 36.9 nM
